Measured values taken from patent US20020025983A1, “Vitamin K and essential fatty acids” (priority 2000, published 2002).

Tests used:
[1] = system: person with atopic dermatitis and with mild premenstrual syndrome; test: Case report: person with atopic dermatitis and mild premenstrual syndrome given EPO, vitamin K1, then EPO again; assay type: in vivo, human; conditions: vitamin K1 supplements alone
Excerpt: A person with atopic dermatitis and with mild premenstrual syndrome was recommended to take 3 g/day of evening primrose oil (EPO). EPO is a widely used nutritional supplement for these problems. It contains about 70% of linoleic acid, but more importantly contains 8-12% of GLA which can by-pass a block in the conversion of linoleic acid to GLA which can occur in many situations, including atopic dermatitis, stress and menstrual disorders. […] As an experiment they were then cautiously given EPO again.

[2] = system: person with severe menstrual cramps and mild premenstrual syndrome; test: Case report: person with severe menstrual cramps and mild premenstrual syndrome given EPO and fish oil, vitamin K1, then EPO and fish oil again; assay type: in vivo, human; conditions: vitamin K1 supplement 2 mg (2000 μg) per day for a month, alone
Description: A second person presented with severe menstrual cramps and mild premenstrual syndrome. […] They therefore took 2 mg (2000 μg) per day of a vitamin K1 supplement for a month which also had no effect on their menstrual problems.

[3] = system: women with osteoporosis; conditions: 45 mg/day; cited from earlier work

Row | Molecule | improvement of skin or premenstrual syndrome [1] | vitamin K deficiency [1] | effect on menstrual problems [2] | progressive loss of bone mineral density [3] | risk of bone fractures [3]
1 | CC1=C(C/C=C(\C)CCC[C@H](C)CCC[C@H](C)CCCC(C)C)C(=O)c2ccccc2C1=O [vitamin K1, phylloquinone] | did not improve | corrected | no effect | – | –
2 | menaquinones [vitamin K2] | – | – | – | slow down but not prevent | could reduce the risk of bone fractures
